This note sets out measurements from US6710018B2, “Compositions containing a dicarboxylic acid diester and a post-emergent herbicide and a method of using the same” (Falcon Lab LLC, priority 2002, dated 2004).

Type in all cases: in vivo
Assay [1] concerns Velvetleaf. Nature of the assay: Example 4: container-grown velvetleaf, backpack sprayer, necrosis and control. Conditions: for % Necrosis After 1 Day / % Control 5 Days / % Control 9 Days / % Control 21 Days: velvetleaf, chlorimuron 0.31 lb.ai/A, dimethyl azelate 1.5 % W/W, 12 gal/A spray. The protocol: Chlorimuron is a sulfonylurea-type postemergence herbicide, sold by duPont under the trade name “Classic”. Dimethyl azelate (80% technical grade with 20% emulsifier) was added with the dilute herbicidal spray solution to determine if the rapidity and effectiveness of weed control was improved. A single nozzle flat fan wand backpack sprayer with C02 propellant calibrated for 12 gal/A spray volume was used to apply the treatments with a handheld wand applicator and constant walking speed. Velvetleaf plants of 6 to 8 inch height with 3 plants per 16 fl oz container in soil-less media were treated with the mixtures shown in the table below. Each treatment was applied to 3 containers to provide 3 replications per treatment. The dilute spray solutions were agitated during application. The effects of the treatment were observed daily for 21 days with the following results: […]

In assay [2] the test system is Mugwort (Artemisia vulgaris L.). In words: Example 3: container-grown mugwort, spray treatment, necrosis and control. Conditions: DMA 1.5 % W/W, 40 gal/A spray; for % Necrosis Day 1: Day 1, glyphosate 0.5 % W/W; for % Necrosis Day 3: Day 3, glyphosate 0.5 % W/W; for % Control Day 9: Day 9, glyphosate 0.5 % W/W; for % Control Day 12: Day 12, glyphosate 0.5 % W/W; for % Control Day 15: Day 15, glyphosate 0.5 % W/W; for % Control Day 19: Day 19, glyphosate 0.5 % W/W. The method, then: Mugwort (Artemisia vulgaris L.) rhizomes 2 to 3 inches in length were collected from established plants and planted into soil-less media in 16 fl. oz. size containers. Each container was a replicate and contained one plant. On Day 0, 14 to 18 inch height single stem plants of mugwort were treated with the solutions shown in Table 1 with calibrated hand pump sprayers with constant agitation. Each plant was sprayed with 14 hand pumps for a nominal 40 gal/A spray volume application. Treatments were irrigated and fertilized as needed.

For assay [3], the system named is Rye (Secale cereale L). In words: Example 6 Study 1: container-grown rye, spray treatment, necrosis and control. Conditions: sethoxydin 0.01 % W/W, dimethyl azelate 3 % W/W, 25 gal/Acre spray; for % Necrosis After 3 Day: 3 days. The method, then: Rye (Secale cereale L) was grown in 16 fl. oz. containers in soil less media until 4 inches in height and then treated with the herbicidal compositions shown in Table 1 by spraying the herbicidal compositions with 4 pumps of a calibrated hand pump sprayer. The spray volume delivered was 25 gal/Acre. The containers contained approximately 12 rye plants per pot and each container was one replication. Treatments were in full sun with no wind. The effects of the treatments were observed over 3 weeks with the following results recorded: Sethoxydin, a cyclohexadione class herbicide, was obtained from BASF Corp. as “Poast”. The dimethyl azelate was a technical grade obtained from Cognis Corp.

Assay [4] concerns corn (Zea mays L.). In words: Example 6 Study 2: potted corn, spray treatment, necrosis and control. Particulars: sethoxydin 0.01 % W/W, dimethyl azelate 3 % W/W, 13 gal/A spray; for % Necrosis After 3 Day: 3 days. The method, then:
Rye (Secale cereale L) was grown in 16 fl. oz. containers in soil less media until 4 inches in height and then treated with the herbicidal compositions shown in Table 1 by spraying the herbicidal compositions with 4 pumps of a calibrated hand pump sprayer. The spray volume delivered was 25 gal/Acre. The containers contained approximately 12 rye plants per pot and each container was one replication. Treatments were in full sun with no wind. The effects of the treatments were observed over 3 weeks with the following results recorded: Sethoxydin, a cyclohexadione class herbicide, was obtained from BASF Corp. as “Poast”. The dimethyl azelate was a technical grade obtained from Cognis Corp. Another identical study was conducted with corn (Zea mays L.) with 3 plants per pot and 2 replications. The treatments were applied as 2 pumps per pot for a 13 gal/A spray volume to 6 inch height corn plants.

Assay [5] concerns Momingglory, pitted (Ipomoea lacunosa L.). Nature of the assay: Example 5: potted pitted morningglory, spray treatment, epinasty and control. Particulars: DMA 2.0 % W/W, 12 gpa spray. The method, then:
Momingglory, pitted (Ipomoea lacunosa L.) was seeded into soil-less media in 16 fl oz plastic pots with 3 plants established per pot. Each pot was a replication. When the morningglory plants had two true leaves, control treatments were applied by 2 manual hand pumps from a calibrated hand-pump sprayer. The spray application was a nominal 12 gpa spray volume. The Day 0 treatments were applied as 2 replications with constant agitation of the dilute spray solution. Treatments were evaluated for a 21 day interval after application as follows: […]

The subject of assay [6] is a variety of weeds. Nature of the assay: Example 1: whole plot, summary of visual effect in words. Particulars: Example 1 plot; after one day. The protocol: A quart of glyphosate herbicide was prepared using the label recommendations of the manufacturer (Monsanto) by adding 18 ml. (0.625 liq. oz.) of “Roundup® Super Concentrate” (41% isopropyl glyphosate), to water and bringing the final solution to 32 oz. liquid (Sol. A). To another 18 ml. of “Roundup Concentrate” was added 18 ml. of dimethyl azelate and this mixture diluted with water to 32 liq. oz. (Sol. B). Thus, each solution contained the same amount of glyphosate while Sol. B also contained 2% dimethyl azelate.
Sol. A was applied with a hand sprayer on a 2 ft. by 3 ft. plot of ground containing a variety of weeds. Sol. B was applied in the same manner on a similar adjacent plot containing the same variety of weeds. The temperature was in the mid-80's (° F.) during the test period with no rain.
The test plots were observed daily.

Assay [7] has as its system target weed. In words: General observations on time to necrosis or kill of weeds.

Turning to `COc1cc(Cl)nc(NC(=O)NS(=O)(=O)c2ccccc2C(=O)O)n1` [Chlorimuron], in assay [1], the “% Necrosis After 1 Day” value was 0%, the “% Control 5 Days” value was found to be 48%, the “% Control 9 Days” value amounted to 53% and the “% Control 21 Days” value stood at 23%.

Turning to `COC(=O)CCCCCCCC(=O)OC` [DMA, Dimethyl azelate], in assay [2], the “% Necrosis Day 1” value came out at 49%, the “% Necrosis Day 3” value was 53%, the “% Control Day 9” value stood at 33% and the “% Control Day 12” value is on record as 21%. In assay [2], the “% Control Day 15” value is recorded as 18% and the “% Control Day 19” value came out at 13%. Also, in assay [3], the “% Necrosis After 1 Day” value is 13%, the “% Necrosis After 3 Day” value came to 15%, the “% Control 5 Days” value worked out at 8% and the “% Control 9 Days” value was found to be 0%. Moreover, in assay [3], the “% Control 21 Days” value was determined as 0%. Also, in assay [1] (dimethyl azelate alone, 1.5 % W/W), the “response of velvetleaf, in words” value is on record as “tolerant”. For the same compound, in assay [1], the “% Necrosis After 1 Day” value is 0%, the “% Control 5 Days” value was found to be 0%, the “% Control 9 Days” value is recorded as 0% and the “% Control 21 Days” value came out at 0%. Further, in assay [4], the “% Necrosis After 1 Day” value came out at 18%, the “% Necrosis After 3 Day” value turned out to be 15%, the “% Control 5 Days” value worked out at 13% and the “% Control 9 Days” value came to 0%. Further, the “% Control 21 Days” value in assay [4] was determined as 0%. For the same compound, in assay [5] (Day 5, 2,4-D ester 0.3 % W/W), the “% Epinasty Day 5 (leaf distortion and downward twisting)” value turned out to be 5%. Moreover, in assay [5] (Day 7, 2,4-D ester 0.3 % W/W), the “% Control Day 7” value is 3%. Besides, the “% Control Day 10” value in assay [5] (Day 10, 2,4-D ester 0.3 % W/W) is recorded as 0%. Also, the “% Control Day 14” value in assay [5] (Day 14, 2,4-D ester 0.3 % W/W) amounted to 0%. Further, the “% Control Day 21” value in assay [5] (Day 21, 2,4-D ester 0.3 % W/W) came to 0%.

Regarding `O=C(O)CNCP(=O)(O)O` [Glyphosate], in assay [2], the “% Necrosis Day 1” value was 0%, the “% Necrosis Day 3” value was 0%, the “% Control Day 9” value came out at 53% and the “% Control Day 12” value turned out to be 100%. Besides, in assay [2], the “% Control Day 15” value amounted to 100% and the “% Control Day 19” value was 100%. Also, the “visual effect on the weeds of the plot, in words” value in assay [6] is listed as “unaffected”. Further, the “time for weed and grass necrosis to approach 100%” value in assay [7] (without the addition of dimethyl azelate) is 3 to 4 days. The minimal necrosis times result in assay [7] (without the diester) is given as “three to four”.

Turning to `CCC/C(=N\OCC)C1=C(O)CC(CC(C)SCC)CC1=O` (stereo not shown) [Sethoxydin], in assay [3], the “% Necrosis After 1 Day” value came out at 0%, the “% Necrosis After 3 Day” value amounted to 3%, the “% Control 5 Days” value amounted to 24% and the “% Control 9 Days” value was found to be 79%. Further, the “% Control 21 Days” value in assay [3] was found to be 94%. In addition, in assay [4], the “% Necrosis After 1 Day” value worked out at 0%, the “% Necrosis After 3 Day” value came to 3%, the “% Control 5 Days” value is reported as 10% and the “% Control 9 Days” value stood at 40%. Further, the “% Control 21 Days” value in assay [4] stood at 88%.
